The source of these data is US6921770B2 (priority 2000, dated 2005).

Test [1] concerns Pyricularia grisea. In kind it is in vivo.
The test system of test [2] is rice blast fungi. In kind it is in vivo, Pyricularia grisea.
For test [3], the system named is rice blast fungi. In kind it is cell-based, Magnaporthe grisea.

Where two headings read alike, the source gives them in different places.

As to `Cc1ccc(NC(=O)Cc2csc(=Nc3cc(OC(C)C)c(Cl)cc3F)n2C)cc1.Cl` [Compound 342], the “controlling effect on rice blast” value in test [1] (2 ppm) is on record as 90%; in test [1] (10 ppm), 98%; in test [1] (100 ppm) it was 92%.

As for `COc1ccc(NC(=O)Cc2csc(=Nc3ccc(C#N)cc3)n2C)cc1F.Cl` [Compound 344, 2-(4-cyanophenylimino)-3-methyl-4-[N-(3-fluoro-4-methoxyphenyl)carbamoylmethyl]-1,3-thiazol-4-ine hydrochloride], the entries for the “controlling effect on rice blast” value in test [1] (2 ppm), in test [1] (10 ppm) and in test [1] (100 ppm) were 83%, 97% and 98%, respectively.

With `Cl.Cn1c(CC(=O)Nc2ccccc2F)csc1=Nc1ccc(Br)cc1` [Compound 152, 2-(4-bromophenylimino)-3-methyl-4-[N-(2-fluorophenyl)carbamoylmethyl]-1,3-thiazol-4-ine hydrochloride], in test [2], the “Inhibiting Ratio (%) (at 250 ppm)” value is listed as 100%. For the same compound, the “controlling effect on rice blast” value in test [1] (2 ppm) stood at 70%; in test [1] (10 ppm), 85%; in test [1] (100 ppm), 99%.

On to `COc1ccc(NC(=O)Cc2csc(=Nc3cccc(Br)c3)n2C)cc1` [Compound 335, 2-(3-bromophenylimino)-3-methyl-4-[N-(methoxyphenyl)carbamoylmethyl]-1,3-thiazol-4-ine], for which the “Inhibiting Ratio (%) (at 250 ppm)” value in test [2] worked out at 99%. The “controlling effect on rice blast” value in test [1] (2 ppm) was 72%; in test [1] (10 ppm) it was 95%; in test [1] (100 ppm) it was 94%.

As to `Br.Cn1c(CC(=O)Nc2ccccc2)csc1=Nc1ccc(F)cc1F` [Compound 27, 2-(2,4-difluorophenylimino)-3-methyl-4-(N-phenylcarbamoylmethyl)-1,3-thiazol-4-ine hydrobromide], the “Inhibiting Ratio (%) (at 250 ppm)” value in test [2] was 98%. For the same compound, the “controlling effect on rice blast” value in test [1] (2 ppm) is reported as 80%; in test [1] (10 ppm), 91%; in test [1] (100 ppm), 98%.

For `CCc1ccc(NC(=O)Cc2csc(=Nc3ccc(C#N)cc3)n2C)cc1.Cl` [Compound 345, 2-(4-cyanophenylimino)-3-methyl-4-[N-(4-ethylphenyl)carbamoylmethyl]-1,3-thiazol-4-ine hydrochloride], the “controlling effect on rice blast” value in test [1] (2 ppm, hydrochloride) stood at 70%; in test [1] (10 ppm, hydrochloride), 94%; in test [1] (100 ppm, hydrochloride), 97%.

Regarding `COc1ccc(NC(=O)Cc2csc(=Nc3ccc(C(F)(F)F)cc3)n2C)cc1.Cl` [Compound 205, 2-(4-trifluoromethylphenylimino)-3-methyl-4-[N-(4-methoxyphenyl)carbamoylmethyl]-1,3-thiazol-4-ine hydrochloride], in test [2], the “Inhibiting Ratio (%) (at 250 ppm)” value is 97%. For the same compound, the “controlling effect on rice blast” value in test [1] (2 ppm) is listed as 93%; in test [1] (10 ppm), 98%; in test [1] (100 ppm), 97%.

Turning to “2-(3-trifluoromethoxyphenylimino)-3-methyl-4-[N-methoxyphenyl)carbamoylmethyl]-1,3-thiazol-4-ine [Compound 339]”, the “Inhibiting Ratio (%) (at 250 ppm)” value in test [2] is reported as 98%. Further, the “controlling effect on rice blast” value in test [1] (2 ppm) is recorded as 80%; in test [1] (10 ppm) it was 95%; in test [1] (100 ppm), 96%.

With `Cl.Cn1c(CC(=O)Nc2ccc(Cl)cc2)csc1=Nc1ccc(C#N)cc1` [Compound 128, 2-(4-cyanophenylimino)-3-methyl-4-[N-(4-chlorophenyl)carbamoylmethyl]-1,3-thiazol-4-ine hydrochloride], in test [2], the “Inhibiting Ratio (%) (at 250 ppm)” value is on record as 98%. In addition, the “controlling effect on rice blast” value in test [1] (2 ppm) is given as 85%; in test [1] (10 ppm), 100%; in test [1] (100 ppm) it was 100%.

Turning to `CCCCc1ccc(N=c2scc(CC(=O)Nc3ccc(C)c(Cl)c3)n2C)cc1.Cl` [Compound 234, 2-[4-(n-butyl)phenylimino]-3-methyl-4-(N-[3-chloro-4-methylphenyl)carbamoylmethyl]-4-thiazoline hydrochloride], the “Inhibiting Ratio (%) (at 250 ppm)” value in test [2] is reported as 97%. In addition, the “controlling effect on rice blast” value in test [1] (2 ppm) was determined as 75%; in test [1] (10 ppm), 92%; in test [1] (100 ppm) it was 97%.

For the compound `CCc1ccc(NC(=O)Cc2csc(=Nc3ccc(C#N)cc3)n2C)cc1.Cl` [Compound 341, 2-(4-cyanophenylimino)-3-methyl-4-[N-(4-ethylphenyl)carbamoylmethyl]-1,3-thiazol-4-ine hydrochloride], the “controlling effect on rice blast” value in test [1] (2 ppm, hydrochloride) is on record as 96%; in test [1] (10 ppm, hydrochloride), 98%; in test [1] (100 ppm, hydrochloride), 93%.

In the case of `COc1ccc(NC(=O)Cc2csc(=Nc3ccc(C(F)(F)F)cc3)n2C)cc1F.Cl` [Compound 343, 2-(4-trifluoromethylphenylimino)-3-methyl-4-[N-(3-fluoro-4-methoxyphenyl)carbamoylmethyl]-1,3-thiazol-4-ine hydrochloride], the figures for the “controlling effect on rice blast” value in test [1] (2 ppm), in test [1] (10 ppm) and in test [1] (100 ppm) were 90%, 94% and 98%, respectively.

As for `CCCCc1ccc(N=c2scc(CC(=O)Nc3ccc(OC)cc3)n2C)cc1.Cl` [Compound 197, 2-[4-(n-butyl)phenylimino]-3-methyl-4-[N-(4-methoxyphenyl)carbamoylmethyl]-1,3-thiazol-4-ine hydrochloride], the “Inhibiting Ratio (%) (at 250 ppm)” value in test [2] is on record as 95%. Further, the “controlling effect on rice blast” value in test [1] (2 ppm) is listed as 83%; in test [1] (10 ppm) it was 98%; in test [1] (100 ppm) it was 95%.

In the case of `COc1ccc(NC(=O)Cc2csc(=Nc3ccc(F)c(Cl)c3)n2C)cc1.Cl` [Compound 202, 2-(3-chloro-4-fluorophenylimino)-3-methyl-4-[N-(4-methoxyphenyl)carbamoylmethyl]-1,3-thiazol-4-ine hydrochloride], the “Inhibiting Ratio (%) (at 250 ppm)” value in test [2] is on record as 95%. For the same compound, the “controlling effect on rice blast” value in test [1] (2 ppm) is on record as 93%; in test [1] (10 ppm), 98%; in test [1] (100 ppm), 95%.

Turning to `COc1ccc(NC(=O)Cc2csc(=Nc3cccc(F)c3)n2C)cc1.Cl` [Compound 203, 2-(3-fluorophenylimino)-3-methyl-4-[N-(4-methoxyphenyl)carbamoylmethyl]-1,3-thiazol-4-ine hydrochloride], the “Inhibiting Ratio (%) (at 250 ppm)” value in test [2] came out at 93%. Also, the figures for the “controlling effect on rice blast” value in test [1] (2 ppm), in test [1] (10 ppm) and in test [1] (100 ppm) were 93%, 99% and 93%, respectively.

On to `COc1ccc(NC(=O)Cc2csc(=Nc3cccc(Br)c3)n2C)cc1.Cl` [Compound 201, 2-(3-bromophenylimino)-3-methyl-4-[N-(4-methoxyphenyl)carbamoylmethyl]-1,3-thiazol-4-ine hydrochloride], for which, in test [2], the “Inhibiting Ratio (%) (at 250 ppm)” value turned out to be 97%. The “controlling effect on rice blast” value in test [1] (2 ppm) amounted to 87%; in test [1] (10 ppm), 99%; in test [1] (100 ppm), 97%.

As to `Cc1cccc2sc3nncn3c12` [tricyclazole, reference compound], the “color of the medium” value in test [3] is recorded as “red”.

`COc1ccc(NC(=O)Cc2csc(=Nc3ccc(F)cc3F)n2C)cc1.Cl` [Compound 206, 2-(2,4-difluorophenylimino)-3-methyl-4-[N-(4-methoxyphenyl)carbamoylmethyl]-1,3-thiazol-4-ine hydrochloride]: in test [2], the “Inhibiting Ratio (%) (at 250 ppm)” value was 93%. Moreover, the “controlling effect on rice blast” value in test [1] (2 ppm) was 93%; in test [1] (10 ppm), 97%; in test [1] (100 ppm) it was 93%.

`CCc1ccc(NC(=O)Cc2csc(=Nc3ccc(C(F)(F)F)cc3)n2C)cc1.Cl` [Compound 346, 2-(4-trifluoromethylphenylimino)-3-methyl-4-[N-(4-ethylphenyl)carbamoylmethyl]-1,3-thiazol-4-ine hydrochloride]: the figures for the “controlling effect on rice blast” value in test [1] (2 ppm), in test [1] (10 ppm) and in test [1] (100 ppm) were 79%, 96% and 99%, respectively.

For the compound `Br.COc1ccc(NC(=O)Cc2csc(=Nc3ccc(C#N)cc3)n2C)cc1` [Compound 323, 2-(4-cyanophenylimino)-3-methyl-4-[N-(4-methoxyphenyl)carbamoylmethyl]-1,3-thiazol-4-ine hydrobromide], in test [2], the “Inhibiting Ratio (%) (at 250 ppm)” value is reported as 97%. For the same compound, the “controlling effect on rice blast” value in test [1] (2 ppm) is 75%; in test [1] (10 ppm) it was 100%; in test [1] (100 ppm), 100%.

Consider `Br.Cn1c(CC(=O)Nc2cccc(Cl)c2)csc1=Nc1ccc(C#N)cc1` [Compound 57, 2-(4-cyanophenylimino)-3-methyl-4-[N-(3-chlorophenyl)carbamoylmethyl]-1,3-thiazol-4-ine hydrobromide], for which the “Inhibiting Ratio (%) (at 250 ppm)” value in test [2] is given as 96%.

`Br.Cc1ccc(NC(=O)Cc2csc(=Nc3cc(Cl)cc(Cl)c3)n2C)cc1` [Compound 4, 2-(3,5-dichlorophenylimino)-3-methyl-4-[N-(4-methylphenyl)carbamoylmethyl]-1,3-thiazol-4-ine hydrobromide]: the “Inhibiting Ratio (%) (at 250 ppm)” value in test [2] worked out at 83%.

As for `Br.Cc1ccc(NC(=O)Cc2csc(=Nc3cc(C)ccc3F)n2C)cc1` [Compound 52, 2-(2-fluoro-5-methylphenylimino)-3-methyl-4-[N-(4-methylphenyl)carbamoylmethyl]-1,3-thiazol-4-ine hydrobromide], in test [2], the “Inhibiting Ratio (%) (at 250 ppm)” value was 99%.

Regarding `Br.Cc1ccc(NC(=O)Cc2csc(=Nc3ccc(F)cc3F)n2C)cc1` [Compound 31, 2-(2,4-difluorophenylimino)-3-methyl-4-[N-(4-methylphenyl)carbamoylmethyl]-1,3-thiazol-4-ine hydrobromide], the “Inhibiting Ratio (%) (at 250 ppm)” value in test [2] came to 100%. Further, the “controlling effect on rice blast” value was found to be 80% in test [1] (2 ppm), 91% in test [1] (10 ppm) and 100% in test [1] (100 ppm).

`Br.Cc1ccc(NC(=O)Cc2csc(=Nc3ccc(Oc4ccccc4)cc3)n2C)cc1` [Compound 13, 2-(4-phenoxyphenylimino)-3-methyl-4-[N-(4-methylphenyl)carbamoylmethyl]-1,3-thiazol-4-ine hydrobromide]: the “Inhibiting Ratio (%) (at 250 ppm)” value in test [2] was 99%.
